“And” between values parts separate entries of the source, which are not always exact repeats. Equal values may be shown once. Inconclusive results and toxic doses are left out. The calls were made as follows: active = survival T/C of 150% or more; inactive = T/C below 125% in these data.
System: P388 leukemia ip, CD2F1 mice, survival T/C
Assay: NCI In Vivo Anticancer Drug Screen. Data for tumor model P388 Leukemia (intraperitoneal) in CD2F1 (CDF1) mice
Settings: endpoint: median survival time, higher = longer survival
How it was run: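 Mice carrying the transplanted tumor received test compound or vehicle. Survival was recorded in each group, and the value is the treated-group measurement divided by that of the vehicle-treated control group.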

[1] = dose: 50.0 mg/kg/injection, schedule: Q01DX005 (ip), vehicle: saline with Tween-80
[2] = dose: 100.0 mg/kg/injection, schedule: Q01DX005 (ip), vehicle: saline with Tween-80
[3] = dose: 200.0 mg/kg/injection, schedule: Q01DX005 (ip), vehicle: saline with Tween-80
[4] = dose: 12.5 mg/kg/injection, schedule: Q01DX005 (ip), vehicle: saline with Tween-80
[5] = dose: 10.0 mg/kg/injection, schedule: Q01DX009 (ip), vehicle: Klucel (hydroxypropylcellulose) (HPC)
[6] = dose: 20.0 mg/kg/injection, schedule: Q01DX009 (ip), vehicle: Klucel (hydroxypropylcellulose) (HPC)
[7] = dose: 50.0 mg/kg/injection, schedule: Q01DX005 (ip), vehicle: Klucel (hydroxypropylcellulose) (HPC)
[8] = dose: 100.0 mg/kg/injection, schedule: Q01DX005 (ip), vehicle: Klucel (hydroxypropylcellulose) (HPC)
[9] = dose: 200.0 mg/kg/injection, schedule: Q01DX005 (ip), vehicle: Klucel (hydroxypropylcellulose) (HPC)

Measured: T/C

O=P1(c2ccccc2)CCCCN1 (centres undefined)
inactive: dose: 100.0 mg/kg/injection, schedule: Q04DX003 (ip), vehicle: saline 104 % of control | dose: 200.0 mg/kg/injection, schedule: Q04DX003 (ip), vehicle: saline 110 % of control | dose: 400.0 mg/kg/injection, schedule: Q04DX003 (ip), vehicle: saline 110 % of control

COC(=O)Nc1cn2ccsc2n1
inactive: [1] 105 % of control | [2] 102 % of control | [3] 105 % of control

CCOC(=O)CCCCCN(/C=C(\C)CN1c2c(nc(N)[nH]c2=O)NCC1CNc1ccc(C(=O)NC(CCC(=O)O)C(=O)O)cc1)C(C)=O (centres undefined)
inactive: dose: 50.0 mg/kg/injection, schedule: Q01DX001 (ip), vehicle: sodium bicarbonate 99 % of control | dose: 100.0 mg/kg/injection, schedule: Q01DX001 (ip), vehicle: sodium bicarbonate 100 % of control | dose: 200.0 mg/kg/injection, schedule: Q01DX001 (ip), vehicle: sodium bicarbonate 100 % of control

CC(=O)OC(CC=C(C)C)C1=CC(=O)c2c(O)ccc(O)c2C1=O (centres undefined)
inactive: dose: 6.25 mg/kg/injection, schedule: Q01DX005 (ip), vehicle: saline with Tween-80 109 % of control | [4] 109 % of control

CCCCCCCCCCCCCCCCCCSC1=CC(=O)C(Cl)=C(Cl)C1=O
inactive: [5] 97 % of control | [6] 90 % of control

C1CC[N-]CC1.C1CC[N-]CC1.C1CC[N-]CC1.[Cr+6].[N-]=C=S.[N-]=C=S.[N-]=C=S
inactive: dose: 100.0 mg/kg/injection, schedule: Q04DX002 (ip), vehicle: acetone 97 % of control | dose: 100.0 mg/kg/injection, schedule: Q04DX002 (ip), vehicle: distilled water + alcohol 99 % of control | dose: 200.0 mg/kg/injection, schedule: Q04DX002 (ip), vehicle: acetone 97 % of control

N#CSCc1ccccc1
inactive: dose: 3.13 mg/kg/injection, schedule: Q01DX009 (ip), vehicle: saline 100 % of control | dose: 6.25 mg/kg/injection, schedule: Q01DX009 (ip), vehicle: saline 105 % of control | dose: 12.5 mg/kg/injection, schedule: Q01DX009 (ip), vehicle: saline 104 % of control

CC1C2CCC(C2)C1CNCC1C2CCC(C2)C1C (centres undefined)
inactive: [4] 100 % of control | dose: 25.0 mg/kg/injection, schedule: Q01DX005 (ip), vehicle: saline with Tween-80 103 % of control | [1] 101 % of control and 105 % of control

CCCCCCCCn1c(C)nc2c(cnn2C)c1=O
inactive: [7] 100 % of control | [8] 96 % of control | [9] 100 % of control

COc1cc2c(cc1O)CCCCC2O (centres undefined)
inactive: dose: 6.25 mg/kg/injection, schedule: Q01DX009 (ip), vehicle: DMSO 94 % of control | dose: 12.5 mg/kg/injection, schedule: Q01DX009 (ip), vehicle: DMSO 102 % of control | dose: 25.0 mg/kg/injection, schedule: Q01DX009 (ip), vehicle: DMSO 87 % of control | dose: 50.0 mg/kg/injection, schedule: Q01DX009 (ip), vehicle: Klucel (hydroxypropylcellulose) (HPC) 94 % of control | dose: 100.0 mg/kg/injection, schedule: Q01DX009 (ip), vehicle: Klucel (hydroxypropylcellulose) (HPC) 97 % of control | dose: 200.0 mg/kg/injection, schedule: Q01DX009 (ip), vehicle: Klucel (hydroxypropylcellulose) (HPC) 94 % of control

COC(=O)/C=C(\I)C(=O)OC
inactive: dose: 3.13 mg/kg/injection, schedule: Q01DX009 (ip), vehicle: saline with Tween-80 104 % of control | dose: 6.25 mg/kg/injection, schedule: Q01DX009 (ip), vehicle: saline with Tween-80 101 % of control | dose: 12.5 mg/kg/injection, schedule: Q01DX009 (ip), vehicle: saline with Tween-80 92 % of control

Cc1ccsc1C(=O)c1ccccc1[N+](=O)[O-]
inactive: [7] 94 % of control | [8] 94 % of control | [9] 100 % of control

CC1C(=O)C23CC1CCC2C12COC(=O)C1C(C)(C)C(=O)CC2OC3=O (centres undefined)
inactive: dose: 50.0 mg/kg/injection, schedule: Q04DX002 (ip), vehicle: saline with Tween-80 105 % of control | dose: 100.0 mg/kg/injection, schedule: Q04DX002 (ip), vehicle: saline with Tween-80 93 % of control | dose: 200.0 mg/kg/injection, schedule: Q04DX002 (ip), vehicle: saline with Tween-80 94 % of control

c1ccc2c(c1)[nH]c1cc3ccncc3cc12
inactive: dose: 50.0 mg/kg/injection, schedule: Q04DX003 (ip), vehicle: saline with Tween-80 94 % of control | dose: 100.0 mg/kg/injection, schedule: Q04DX003 (ip), vehicle: saline with Tween-80 91 % of control | dose: 200.0 mg/kg/injection, schedule: Q04DX003 (ip), vehicle: saline with Tween-80 87 % of control

COc1cc2c(c3c1OCO3)-c1ccc(OC)c(=O)cc1C(NC(C)=O)CC2 (centres undefined)
inactive: dose: 1.25 mg/kg/injection, schedule: Q01DX009 (ip), vehicle: Klucel (hydroxypropylcellulose) (HPC) 108 % of control | dose: 2.5 mg/kg/injection, schedule: Q01DX009 (ip), vehicle: Klucel (hydroxypropylcellulose) (HPC) 104 % of control | dose: 5.0 mg/kg/injection, schedule: Q01DX009 (ip), vehicle: Klucel (hydroxypropylcellulose) (HPC) 111 % of control | [5] 116 % of control | [6] 118 % of control

COc1ccc(CCn2cnn3c(=O)c4ccccc4nc3c2=O)cc1OC
inactive: dose: 60.0 mg/kg/injection, schedule: Q01DX005 (ip), vehicle: saline with Tween-80 99 % of control | dose: 120.0 mg/kg/injection, schedule: Q01DX005 (ip), vehicle: saline with Tween-80 92 % of control

C=CCC(C(C)=O)C(=O)OC (centres undefined)
inactive: dose: 50.0 mg/kg/injection, schedule: Q01DX005 (ip), vehicle: saline 90 % of control | dose: 100.0 mg/kg/injection, schedule: Q01DX005 (ip), vehicle: saline 104 % of control | dose: 200.0 mg/kg/injection, schedule: Q01DX005 (ip), vehicle: saline 100 % of control

O=C1C=C(NCCNCCO)C(=O)c2ccccc21
inactive: dose: 6.25 mg/kg/injection, schedule: Q01DX009 (ip), vehicle: distilled water + Tween-80 96 % of control | dose: 12.5 mg/kg/injection, schedule: Q01DX009 (ip), vehicle: distilled water + Tween-80 98 % of control and 95 % of control | dose: 25.0 mg/kg/injection, schedule: Q01DX009 (ip), vehicle: distilled water + Tween-80 109 % of control and 95 % of control | dose: 50.0 mg/kg/injection, schedule: Q01DX009 (ip), vehicle: distilled water + Tween-80 111 % of control and 94 % of control | dose: 100.0 mg/kg/injection, schedule: Q01DX009 (ip), vehicle: distilled water + Tween-80 88 % of control and 97 % of control

NN1C(=O)C2C3C=CC(C4CC34)C2C1=O (centres undefined)
inactive: dose: 6.25 mg/kg/injection, schedule: Q01DX009 (ip), vehicle: Klucel (hydroxypropylcellulose) (HPC) 100 % of control | dose: 12.5 mg/kg/injection, schedule: Q01DX009 (ip), vehicle: Klucel (hydroxypropylcellulose) (HPC) 110 % of control

CCCCN(CCCC)CC(O)c1ccc(OCc2ccccc2)c2ccccc12 (centres undefined)
inactive: [1] 102 % of control | [2] 102 % of control | [3] 102 % of control

O=[N+]([O-])c1cc(Br)c2cccc3c2c1CC3
inactive: dose: 25.0 mg/kg/injection, schedule: Q01DX005 (ip), vehicle: Klucel (hydroxypropylcellulose) (HPC) 91 % of control | [7] 93 % of control | [8] 90 % of control

CC(=O)C(Cl)C(=O)c1c(-c2ccccc2)[nH]c2ccccc12 (centres undefined)
inactive: dose: 100.0 mg/kg/injection, schedule: Q01DX001 (ip), vehicle: Klucel (hydroxypropylcellulose) (HPC) 100 % of control | dose: 200.0 mg/kg/injection, schedule: Q01DX001 (ip), vehicle: Klucel (hydroxypropylcellulose) (HPC) 102 % of control | dose: 400.0 mg/kg/injection, schedule: Q01DX001 (ip), vehicle: Klucel (hydroxypropylcellulose) (HPC) 105 % of control
